Assay results from patent publication US8435980B2 (AbbVie Inc., priority 2009, dated 2013).

Biological target: T1, Cdc7 (BEV coexpressed huCDC7/DBF4) (Homo sapiens, UniProt O00311)
T1 construct: made in house; host or cells: BEV (baculovirus expression vector) co-expression; insect cells are implied but no cell line is named
Test: Cdc7 enzyme inhibition assay ([33P]ATP, biotinylated peptide substrate, FlashPlate)
Format: biochemical
Settings: Table 3; enzyme inhibition data (Ki)
Protocol: Cdc7 (BEV coexpressed huCDC7/DBF4) is prepared internally. Cdc7 assays are conducted as follows with final concentrations as listed. […] Reactions are quenched after 1 hr by the addition of 90 μL stop buffer (50 mM EDTA, 2M NaCl). […] (Ki) for exemplary compounds.

T1 sequence (O00311 whole entry): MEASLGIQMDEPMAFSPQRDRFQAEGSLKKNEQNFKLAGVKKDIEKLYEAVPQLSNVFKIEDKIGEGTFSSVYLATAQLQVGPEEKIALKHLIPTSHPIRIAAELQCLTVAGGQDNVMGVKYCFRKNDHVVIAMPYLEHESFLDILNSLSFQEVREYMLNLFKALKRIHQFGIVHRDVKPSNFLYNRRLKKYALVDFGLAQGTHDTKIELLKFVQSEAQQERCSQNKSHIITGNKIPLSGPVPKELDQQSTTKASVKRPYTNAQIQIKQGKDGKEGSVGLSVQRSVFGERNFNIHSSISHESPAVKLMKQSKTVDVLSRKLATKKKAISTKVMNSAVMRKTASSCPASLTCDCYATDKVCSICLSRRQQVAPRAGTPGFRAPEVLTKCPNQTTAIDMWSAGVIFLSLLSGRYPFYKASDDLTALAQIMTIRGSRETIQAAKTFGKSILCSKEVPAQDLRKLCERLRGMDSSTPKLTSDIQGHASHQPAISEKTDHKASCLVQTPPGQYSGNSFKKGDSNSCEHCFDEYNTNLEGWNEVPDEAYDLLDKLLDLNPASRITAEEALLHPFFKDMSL
T1 sequence (Q9UBU7 whole entry partner): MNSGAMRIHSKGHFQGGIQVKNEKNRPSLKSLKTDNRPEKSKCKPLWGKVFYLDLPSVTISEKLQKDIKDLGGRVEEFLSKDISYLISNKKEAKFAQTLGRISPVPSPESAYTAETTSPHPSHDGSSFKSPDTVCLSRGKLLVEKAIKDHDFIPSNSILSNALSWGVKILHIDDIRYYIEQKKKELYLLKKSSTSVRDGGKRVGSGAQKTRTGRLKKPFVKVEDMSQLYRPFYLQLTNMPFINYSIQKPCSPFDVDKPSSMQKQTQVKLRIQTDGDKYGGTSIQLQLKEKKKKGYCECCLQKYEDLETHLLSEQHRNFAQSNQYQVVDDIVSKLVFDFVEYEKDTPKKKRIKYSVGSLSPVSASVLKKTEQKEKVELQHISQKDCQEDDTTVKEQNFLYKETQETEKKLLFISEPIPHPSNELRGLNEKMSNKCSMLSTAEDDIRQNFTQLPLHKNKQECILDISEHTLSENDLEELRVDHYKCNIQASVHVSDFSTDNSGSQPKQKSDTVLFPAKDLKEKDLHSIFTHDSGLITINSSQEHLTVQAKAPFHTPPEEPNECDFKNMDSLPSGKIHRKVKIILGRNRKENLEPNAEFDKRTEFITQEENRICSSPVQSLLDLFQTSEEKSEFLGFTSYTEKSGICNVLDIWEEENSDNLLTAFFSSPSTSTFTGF

| Compound | Ki [nM] |
| --- | --- |
| CC(C)(CNc1cc(-c2c[nH]c3ncccc23)cc(Cl)n1)CNS(=O)(=O)c1cccnc1 [Example 81, N-(3-{[6-chloro-4-(1H-pyrrolo[2,3-b]pyridin-3-yl)pyridin-2-yl]amino}-2,2-dimethylpropyl)pyridine-3-sulfonamide] | 10 to 100 |
| Clc1cc(-c2c[nH]c3ncccc23)cc(NC2CCCC(NCC3CC3)C2)n1 (stereo not drawn) [Example 103, N-[6-chloro-4-(1H-pyrrolo[2,3-b]pyridin-3-yl)pyridin-2-yl]-N′-(cyclopropylmethyl)cyclohexane-1,3-diamine] | < 10 |
| Clc1cc(-c2c[nH]c3ncccc23)cc(NC2CCCN(C3CCC3)C2)n1 (stereo not drawn) [Example 104, 6-chloro-N-(1-cyclobutylpiperidin-3-yl)-4-(1H-pyrrolo[2,3-b]pyridin-3-yl)pyridin-2-amine] | < 10 |
| Clc1cc(-c2c[nH]c3ncccc23)cc(N[C@H]2CC[C@H](NC3CCC3)CC2)n1 [Example 105, trans-N-[6-chloro-4-(1H-pyrrolo[2,3-b]pyridin-3-yl)pyridin-2-yl]-N′-cyclobutylcyclohexane-1,4-diamine] | < 10 |
| O=C(N[C@H]1CC[C@H](Nc2cc(-c3c[nH]c4ncccc34)cc(Cl)n2)CC1)[C@@H]1CCN1 [Example 106, (2S)—N-(trans-4-{[6-chloro-4-(1H-pyrrolo[2,3-b]pyridin-3-yl)pyridin-2-yl]amino}cyclohexyl)azetidine-2-carboxamide] | < 10 |
| O=C(Nc1cc(-c2c[nH]c3ncccc23)cc(Cl)n1)c1cccnc1 [Example 107, N-[6-chloro-4-(1H-pyrrolo[2,3-b]pyridin-3-yl)pyridin-2-yl]pyridine-3-carboxamide] | < 10 |
| Clc1cc(-c2c[nH]c3ncccc23)cc(N[C@H]2CC[C@H](NCC3CC3)CC2)n1 [Example 109, trans-N-[6-chloro-4-(1H-pyrrolo[2,3-b]pyridin-3-yl)pyridin-2-yl]-N′-(cyclopropylmethyl)cyclohexane-1,4-diamine] | < 10 |
| O=C(Nc1cc(-c2c[nH]c3ncccc23)cc(Cl)n1)C1CCNCC1 [Example 112, N-[6-chloro-4-(1H-pyrrolo[2,3-b]pyridin-3-yl)pyridin-2-yl]piperidine-4-carboxamide] | < 10 |
| CC(=O)NCC(C)(C)CNc1cc(-c2c[nH]c3ncccc23)cc(Cl)n1 [Example 113, N-(3-{[6-chloro-4-(1H-pyrrolo[2,3-b]pyridin-3-yl)pyridin-2-yl]amino}-2,2-dimethylpropyl)acetamide] | < 10 |
| CN(C)CC(=O)N[C@H]1CC[C@H](Nc2cc(-c3c[nH]c4ncccc34)cc(Cl)n2)CC1 [Example 114, N-(trans-4-{[6-chloro-4-(1H-pyrrolo[2,3-b]pyridin-3-yl)pyridin-2-yl]amino}cyclohexyl)-N^2,N^2-dimethylglycinamide] | < 10 |
| O=C1C[C@@H](C(=O)N[C@H]2CC[C@H](Nc3cc(-c4c[nH]c5ncccc45)cc(Cl)n3)CC2)N1 [Example 115, (2S)—N-(trans-4-{[6-chloro-4-(1H-pyrrolo[2,3-b]pyridin-3-yl)pyridin-2-yl]-amino}cyclohexyl)-4-oxo azetidine-2-carboxamide] | < 10 |
| CN[C@@H](C)C(=O)N[C@H]1CC[C@H](Nc2cc(-c3c[nH]c4ncccc34)cc(Cl)n2)CC1 [Example 116, N-(trans-4-{[6-chloro-4-(1H-pyrrolo[2,3-b]pyridin-3-yl)pyridin-2-yl]amino}cyclohexyl)-N^2-methyl-L-alaninamide] | < 10 |
| O=C(C1CCN1)N1CCC(Nc2cc(-c3c[nH]c4ncccc34)cc(Cl)n2)CC1 (stereo not drawn) [Example 117, Azetidin-2-yl(4-{[6-chloro-4-(1H-pyrrolo[2,3-b]pyridin-3-yl)pyridin-2-yl]amino}piperidin-1-yl)methanone] | < 10 |
| CN(C)CC(=O)NC1CCCC(Nc2cc(-c3c[nH]c4ncccc34)cc(Cl)n2)C1 (stereo not drawn) [Example 118, N-(3-{[6-chloro-4-(1H-pyrrolo[2,3-b]pyridin-3-yl)pyridin-2-yl]amino}cyclohexyl)-N^2,N^2-dimethylglycinamide] | < 10 |
| CN1CCC[C@H]1C(=O)NC1CCCC(Nc2cc(-c3c[nH]c4ncccc34)cc(Cl)n2)C1 (stereo partly drawn) [Example 119, N-(3-{[6-chloro-4-(1H-pyrrolo[2,3-b]pyridin-3-yl)pyridin-2-yl]amino}cyclohexyl)-1-methyl-L-prolinamide] | < 10 |
| CN(C)CC(C)(C)CNc1cc(-c2c[nH]c3ncccc23)cc(Cl)n1 [Example 121, N′-[6-chloro-4-(1H-pyrrolo[2,3-b]pyridin-3-yl)pyridin-2-yl]-N,N,2,2-tetramethylpropane-1,3-diamine] | < 10 |
| CS(=O)(=O)Nc1cc(-c2c[nH]c3ncccc23)cc(Cl)n1 [Example 122, N-[6-chloro-4-(1H-pyrrolo[2,3-b]pyridin-3-yl)pyridin-2-yl]methanesulfonamide] | < 10 |
| O=S(=O)(Nc1cc(-c2c[nH]c3ncccc23)cc(Cl)n1)c1ccccc1 [Example 123, N-[6-chloro-4-(1H-pyrrolo[2,3-b]pyridin-3-yl)pyridin-2-yl]benzenesulfonamide] | < 10 |

Other lines, results leading:

| Ki [nM] | Compound |
| --- | --- |
| < 10 | CC(C)(CNc1cc(-c2c[nH]c3ncccc23)cc(Cl)n1)CNS(=O)(=O)C1CC1 [Example 82, N-(3-{[6-chloro-4-(1H-pyrrolo[2,3-b]pyridin-3-yl)pyridin-2-yl]amino}-2,2-dimethylpropyl)cyclopropanesulfonamide] |
| < 10 | O=S(=O)(NC1CCCC(Nc2cc(-c3c[nH]c4ncccc34)cc(Cl)n2)C1)c1cccs1 (stereo not drawn) [Example 83, N-(3-{[6-chloro-4-(1H-pyrrolo[2,3-b]pyridin-3-yl)pyridin-2-yl]amino}cyclohexyl)thiophene-2-sulfonamide] |
| < 10 | CCCCC(=O)Nc1cc(-c2c[nH]c3ncccc23)cc(Cl)n1 [Example 84, N-[6-chloro-4-(1H-pyrrolo[2,3-b]pyridin-3-yl)pyridin-2-yl]pentanamide] |
| < 10 | O=C(Nc1cc(-c2c[nH]c3ncccc23)cc(Cl)n1)C1CCCCC1 [Example 85, N-[6-chloro-4-(1H-pyrrolo[2,3-b]pyridin-3-yl)pyridin-2-yl]cyclohexanecarboxamide] |
| < 10 | O=C(Nc1cc(-c2c[nH]c3ncccc23)cc(Cl)n1)c1ccccc1 [Example 86, N-[6-chloro-4-(1H-pyrrolo[2,3-b]pyridin-3-yl)pyridin-2-yl]benzamide] |
| < 10 | O=S(=O)(NCCNc1cc(-c2c[nH]c3ncccc23)cc(Cl)n1)C1CC1 [Example 89, N-(2-{[6-chloro-4-(1H-pyrrolo[2,3-b]pyridin-3-yl)pyridin-2-yl]amino}ethyl)cyclopropanesulfonamide] |
| < 10 | O=S(=O)(NCCNc1cc(-c2c[nH]c3ncccc23)cc(Cl)n1)c1cccnc1 [Example 90, N-(2-{[6-chloro-4-(1H-pyrrolo[2,3-b]pyridin-3-yl)pyridin-2-yl]amino}ethyl)pyridine-3-sulfonamide] |
| < 10 | Clc1cc(-c2c[nH]c3ncccc23)cc(NC2CCC2)n1 [Example 92, 6-chloro-N-cyclobutyl-4-(1H-pyrrolo[2,3-b]pyridin-3-yl)pyridin-2-amine] |
| < 10 | CN(C)[C@H]1CC[C@H](Nc2cc(-c3c[nH]c4ncccc34)cc(Cl)n2)CC1 [Example 93, trans-N′-[6-chloro-4-(1H-pyrrolo[2,3-b]pyridin-3-yl)pyridin-2-yl]-N,N-dimethylcyclohexane-1,4-diamine] |
| < 10 | CCN1CCCC(CNc2cc(-c3c[nH]c4ncccc34)cc(Cl)n2)C1 (stereo not drawn) [Example 94, 6-chloro-N-[(1-ethylpiperidin-3-yl)methyl]-4-(1H-pyrrolo[2,3-b]pyridin-3-yl)pyridin-2-amine] |
| < 10 | Clc1cc(-c2c[nH]c3ncccc23)cc(NCC2CCCN(C3CCC3)C2)n1 (stereo not drawn) [Example 95, 6-chloro-N-[(1-cyclobutylpiperidin-3-yl)methyl]-4-(1H-pyrrolo[2,3-b]pyridin-3-yl)pyridin-2-amine] |
| < 10 | Clc1cc(-c2c[nH]c3ncccc23)cc(NCC2CCCN(Cc3cccnc3)C2)n1 (stereo not drawn) [Example 96, 6-chloro-N-{[1-(pyridin-3-ylmethyl)piperidin-3-yl]methyl}-4-(1H-pyrrolo[2,3-b]pyridin-3-yl)pyridin-2-amine] |
| < 10 | CS(=O)(=O)N1CCCC(CNc2cc(-c3c[nH]c4ncccc34)cc(Cl)n2)C1 (stereo not drawn) [Example 97, 6-chloro-N-((1-(methylsulfonyl)piperidin-3-yl)methyl)-4-(1H-pyrrolo[2,3-b]pyridin-3-yl)pyridin-2-amine] |
| < 10 | CCNC(=O)N1CCCC(CNc2cc(-c3c[nH]c4ncccc34)cc(Cl)n2)C1 (stereo not drawn) [Example 98, 3-((6-chloro-4-(1H-pyrrolo[2,3-b]pyridin-3-yl)pyridin-2-ylamino)methyl)-N-ethylpiperidine-1-carboxamide] |
| < 10 | CNC(=O)N[C@H]1CC[C@H](Nc2cc(-c3c[nH]c4ncccc34)cc(Cl)n2)CC1 [Example 99, 1-(trans-4-{[6-chloro-4-(1H-pyrrolo[2,3-b]pyridin-3-yl)pyridin-2-yl]amino}cyclohexyl)-3-methylurea] |
| < 10 | CC(=O)N1CCCC(CNc2cc(-c3c[nH]c4ncccc34)cc(Cl)n2)C1 (stereo not drawn) [Example 100, 1-[3-({[6-chloro-4-(1H-pyrrolo[2,3-b]pyridin-3-yl)pyridin-2-yl]amino}methyl)piperidin-1-yl]ethanone] |
| < 10 | O=S(=O)(C1CC1)N1CCCC(CNc2cc(-c3c[nH]c4ncccc34)cc(Cl)n2)C1 (stereo not drawn) [Example 101, 6-chloro-N-{[1-(cyclopropylsulfonyl)piperidin-3-yl]methyl}-4-(1H-pyrrolo[2,3-b]pyridin-3-yl)pyridin-2-amine] |
| < 10 | O=C(C1CC1)N1CCCC(Nc2cc(-c3c[nH]c4ncccc34)cc(Cl)n2)C1 (stereo not drawn) [Example 102, (3-{[6-chloro-4-(1H-pyrrolo[2,3-b]pyridin-3-yl)pyridin-2-yl]amino}piperidin-1-yl)(cyclopropyl)methanone] |
